Values of other authors as cited in patent US7041851B2, “Fluorinated phenyl thiophenyl derivatives and their use for imaging serotonin transporters” (The Trustees of the University of Pennsylvania, priority 2002, dated 2006).

Biological target: T1, SERT (Rattus norvegicus, UniProt P31652)
T1 construct: from tissue; host or cells: rat brain in vivo (hypothalamus, striatum, hippocampus, cerebellum)
Conditions: rats, 11C-labelled; Huang et al., 2001b; cited from earlier work

T1 sequence (P31652 whole entry): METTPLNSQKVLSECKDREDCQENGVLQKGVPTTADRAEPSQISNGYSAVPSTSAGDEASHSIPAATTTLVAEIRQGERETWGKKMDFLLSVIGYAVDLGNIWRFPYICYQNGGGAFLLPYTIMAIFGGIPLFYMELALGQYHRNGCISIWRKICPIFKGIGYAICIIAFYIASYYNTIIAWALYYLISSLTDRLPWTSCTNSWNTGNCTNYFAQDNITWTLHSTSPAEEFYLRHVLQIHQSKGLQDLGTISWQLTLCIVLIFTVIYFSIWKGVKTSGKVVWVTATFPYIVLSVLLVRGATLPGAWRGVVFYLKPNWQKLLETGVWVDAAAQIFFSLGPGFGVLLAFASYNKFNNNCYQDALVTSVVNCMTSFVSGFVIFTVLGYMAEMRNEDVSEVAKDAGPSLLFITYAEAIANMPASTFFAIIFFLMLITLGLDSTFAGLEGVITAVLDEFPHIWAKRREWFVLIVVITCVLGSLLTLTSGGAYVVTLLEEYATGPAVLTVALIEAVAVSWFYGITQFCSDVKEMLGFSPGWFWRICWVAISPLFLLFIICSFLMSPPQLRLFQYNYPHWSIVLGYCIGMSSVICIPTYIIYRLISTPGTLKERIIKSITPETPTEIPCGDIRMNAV

With CN([11CH3])Cc1ccccc1Sc1ccc(CF)cc1N [AFM] as the compound, how does the “Brain uptake and specific binding” value read?
The value was “excellent brain uptake and a high degree of specific binding”.
